The values that follow come from BindingDB's records for doi:10.1016/j.bmcl.2011.04.103 (University of Strasburg, 2011).

This assay is described as follows: Inhibition of N-terminal SHH activated pathway in mouse C3H10T1/2 cells assessed as SAG-induced cell differentiation by alkaline phosphatase assay.

On to `CC1=C2C[C@H]3[C@@H](CC=C4C[C@@H](O)CC[C@@]43C)[C@@H]2CC[C@]12O[C@@H]1C[C@H](C)CN[C@H]1[C@H]2C`, for which the concentration for half-maximal inhibition (IC50) is 600 nM. For `C[C@H]([C@@H]1CCCCN1)[C@H]1CC[C@H]2[C@@H]3CC=C4C[C@@H](O)CC[C@]4(C)[C@H]3CC[C@]12C`, the IC50 was 3200 nM. Then `COc1cccc(CN(C(=O)CC(C)(C)C)[C@H]2C[C@@H](C(=O)N3CCNCC3)N(Cc3ccc4c(c3)OCO4)C2)c1` [N-((3S,5S)-1-(benzo[d][1,3]dioxol-5-ylmethyl)-5-(piperazine-1-carbonyl)pyrrolidin-3-yl)-N-(3-methoxybenzyl)-3,3-dimethylbutanamide], with 300 nM.
